The record followed here is patent US5502035A, “N-terminus modified analogs of LHRH” (Tap Holdings Inc., priority 1994, dated 1996).

Non-standard residues stand in square brackets, D forms with d. Residues, ends and D or L forms follow the SMILES beside them. Groups on a side chain read outwards from the residue. *: point of attachment. Shikimoyl = O=C(C1=C[C@@H](O)[C@@H](O)[C@H](O)C1)*; dPhe(4-Cl) = N[C@H](Cc1ccc(Cl)cc1)C(=O)O; d2Nal = N[C@H](Cc1ccc2ccccc2c1)C(=O)O; Acetyl(3-pyridyl) = O=C(Cc1cccnc1)*; Lys(iPr) = CC(C)NCCCC[C@H](N)C(=O)O; NMeY = CN[C@@H](Cc1ccc(O)cc1)C(=O)O; dCit = NC(=O)NCCC[C@@H](N)C(=O)O; d3Pal = N[C@H](Cc1cccnc1)C(=O)O; Nicotinoyl = O=C(c1cccnc1)*; Tos = Cc1ccc(S(=O)(=O)*)cc1; X8 = O=C1CC[C@H](C(=O)*)O1; X1 = O=C([C@@H]1CCCO1)*; X9 = O=C(c1ccc(O)nc1)*; GABA = NCCCC(=O)O

What is called Kb is the equilibrium dissociation constant of an antagonist, usually derived from a functional assay.

The experiment addresses T1, LHRH (Rattus norvegicus, UniProt P30969).
T1 construct: endogenous in cells; host or cells: rat pituitary cells (own knowledge of the cited Haviv 1989 method)
T1 sequence (P30969 1-327): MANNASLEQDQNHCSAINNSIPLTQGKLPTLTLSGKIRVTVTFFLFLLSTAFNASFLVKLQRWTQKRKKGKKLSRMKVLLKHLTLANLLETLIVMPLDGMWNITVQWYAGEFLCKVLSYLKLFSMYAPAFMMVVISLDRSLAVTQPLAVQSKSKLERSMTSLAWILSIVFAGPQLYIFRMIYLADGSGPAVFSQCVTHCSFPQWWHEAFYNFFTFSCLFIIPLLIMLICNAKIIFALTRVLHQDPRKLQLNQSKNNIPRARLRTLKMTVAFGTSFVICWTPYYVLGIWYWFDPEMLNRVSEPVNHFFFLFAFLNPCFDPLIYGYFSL
Kind of experiment: in vitro test for LHRH antagonist potency (pA2). Type of experiment: cell-based. The conditions noted are these: negative logarithm of the antagonist concentration required to shift the response curve produced by the agonist leuprolide to two-fold higher concentration. An outline of the steps: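 Rat LHRH receptor in vitro functional test; pA2 = negative log of the antagonist concentration shifting the leuprolide agonist response curve to two-fold higher concentration.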
On to `CC(C)C[C@H](NC(=O)[C@@H](CCCCNC(=O)[C@@H](CO)NC(=O)c1cccnc1)NC(=O)[C@H](Cc1ccc(O)cc1)N(C)C(=O)[C@H](CO)NC(=O)[C@@H](Cc1cccnc1)NC(=O)[C@@H](Cc1ccc(Cl)cc1)NC(=O)[C@@H](Cc1ccc2ccccc2c1)NC(=O)CNC(=O)C1=C[C@@H](O)[C@@H](O)[C@H](O)C1)C(=O)N[C@@H](CCCNC(=N)N)C(=O)N1CCC[C@H]1C(=O)N[C@H](C)C(N)=O` [Example 15c, N-Shikimyl-Gly-D2Nal-D4ClPhe-D3Pal-Ser-NMeTyr-DLys(DSer-Nic)-Leu-Arg-Pro-DAlaNH2] (Shikimoyl-G[d2Nal][dPhe(4-Cl)][d3Pal]S[NMeY][dK]([dS-Nicotinoyl])LRP[dA]-NH2), for which the Kb is 0.01 nM.

As for `CC(C)C[C@H](NC(=O)[C@@H](CCCCNC(=O)c1cccnc1)NC(=O)[C@H](Cc1ccc(O)cc1)N(C)C(=O)[C@H](CO)NC(=O)[C@@H](Cc1cccnc1)NC(=O)[C@H](Cc1ccc(Cl)cc1)NC(=O)[C@@H](Cc1ccc2ccccc2c1)NC(=O)CNC(=O)[C@@H]1CCCO1)C(=O)N[C@@H](CCCCNC(C)C)C(=O)N1CCC[C@H]1C(=O)N[C@H](C)C(N)=O` [Example 86, N (S)-2-Tetrahydrofuroyl-Gly-D2Nal-4ClPhe-D3Pal-Ser-NMeTyr-DLys(N-epsilon-Nicotinyl) -Leu-Lys(N-epsilon-Isopropyl)-Pro-DAlaNH2], the Kb is 0.141 nM.

On to `CC(C)C[C@H](NC(=O)[C@@H](CCCCNC(=O)c1cccnc1)NC(=O)[C@H](Cc1ccc(O)cc1)N(C)C(=O)[C@H](CO)NC(=O)[C@@H](Cc1cccnc1)NC(=O)[C@@H](Cc1ccc(Cl)cc1)NC(=O)[C@@H](Cc1ccc2ccccc2c1)NC(=O)c1cccnc1)C(=O)N[C@@H](CCCCNC(C)C)C(=O)N1CCC[C@H]1C(=O)N[C@H](C)C(N)=O` [Example 72d, N-Nicotinyl-D2Nal-D4ClPhe-D3Pal-Ser-NMeTyr-DLys(Nic)-Leu-Lys(Isp)-Pro-DAlaNH2] (Nicotinoyl-[d2Nal][dPhe(4-Cl)][d3Pal]S[NMeY][dK](Nicotinoyl)L[Lys(iPr)]P[dA]-NH2), for which the Kb is 0.00871 nM.

For `CC(C)C[C@H](NC(=O)[C@@H](CCCNC(N)=O)NC(=O)[C@H](Cc1ccc(O)cc1)N(C)C(=O)[C@H](CO)NC(=O)[C@@H](Cc1cccnc1)NC(=O)[C@@H](Cc1ccc(Cl)cc1)NC(=O)[C@@H](Cc1ccc2ccccc2c1)NC(=O)Cc1cccnc1)C(=O)N[C@@H](CCCNC(=N)N)C(=O)N1CCC[C@H]1C(=O)N[C@H](C)C(N)=O` [Example 78h, N-(3-Pyridylacetyl)-D2Nal-D4ClPhe-D3Pal-Ser-NMeTyr-DCit-Leu-Arg-Pro-DAlaNH2] ({Acetyl(3-pyridyl)}-[d2Nal][dPhe(4-Cl)][d3Pal]S[NMeY][dCit]LRP[dA]-NH2), the Kb is 0.0316 nM.

Take `CC(C)C[C@H](NC(=O)[C@@H](CCCCNC(=O)c1cccnc1)NC(=O)[C@H](Cc1ccc(O)cc1)N(C)C(=O)[C@H](CO)NC(=O)[C@@H](Cc1cccnc1)NC(=O)[C@@H](Cc1ccc(Cl)cc1)NC(=O)[C@@H](Cc1ccc2ccccc2c1)NC(=O)CNC(=O)c1cccnc1)C(=O)N[C@@H](CCCCNC(C)C)C(=O)N1CCC[C@H]1C(=O)N[C@H](C)C(N)=O` [Example 2f, N-Nicotinyl-Gly-D2Nal-D4ClPhe-D3Pal-Ser-NMeTyr-DLys(N-epsilon-Nicotinyl) -Leu-Lys(N-epsilon-Isopropyl)-Pro-DAlaNH2] (Nicotinoyl-G[d2Nal][dPhe(4-Cl)][d3Pal]S[NMeY][dK](Nicotinoyl)L[Lys(iPr)]P[dA]-NH2): the Kb is 0.00891 nM.

Take `CC(C)C[C@H](NC(=O)[C@@H](CCCCNC(=O)c1cccnc1)NC(=O)[C@H](Cc1ccc(O)cc1)N(C)C(=O)[C@H](CO)NC(=O)[C@@H](Cc1cccnc1)NC(=O)[C@@H](Cc1ccccc1)NC(=O)[C@@H](Cc1ccc2ccccc2c1)NC(=O)CNC(=O)[C@@H]1CCCO1)C(=O)N[C@@H](CCCCNC(C)C)C(=O)N1CCC[C@H]1C(=O)N[C@H](C)C(N)=O` [Example 94, N (S)-2-Tetrahydrofuroyl-Gly-D2Nal-DPhe-D3Pal-Ser-NMeTyr-DLys(Nic)-Leu-Lys(N-epsilon-Isopropyl)-Pro-DAlaNH2] (X1-G[d2Nal][dF][d3Pal]S[NMeY][dK](Nicotinoyl)L[Lys(iPr)]P[dA]-NH2): the Kb was 0.00832 nM.

Turning to `CC(C)C[C@H](NC(=O)[C@@H](CCCCNC(=O)c1cccnc1)NC(=O)[C@H](Cc1ccc(O)cc1)N(C)C(=O)[C@H](CO)NC(=O)[C@@H](Cc1cccnc1)NC(=O)[C@@H](Cc1ccc(Cl)cc1)NC(=O)[C@@H](Cc1ccc2ccccc2c1)NC(=O)c1ccc(O)nc1)C(=O)N[C@@H](CCCCNC(C)C)C(=O)N1CCC[C@H]1C(=O)N[C@H](C)C(N)=O` [Example 72f, N-(6-Hydroxy)nicotinyl-D2Nal-D4ClPhe-D3Pal-Ser-NMeTyr-DLys(Nic)-Leu-Lys(Isp)-Pro-DAlaNH2] (X9-[d2Nal][dPhe(4-Cl)][d3Pal]S[NMeY][dK](Nicotinoyl)L[Lys(iPr)]P[dA]-NH2), the Kb is 0.01 nM.

As for `CC(C)C[C@H](NC(=O)[C@@H](CCCCNC(=O)c1cccnc1)NC(=O)[C@H](Cc1ccc(O)cc1)N(C)C(=O)[C@H](CO)NC(=O)[C@@H](Cc1cccnc1)NC(=O)[C@@H](Cc1ccc(Cl)cc1)NC(=O)[C@@H](Cc1ccc2ccccc2c1)NC(=O)CCCNC(=O)[C@@H]1CCCO1)C(=O)N[C@@H](CCCCNC(C)C)C(=O)N1CCC[C@H]1C(=O)N[C@H](C)C(N)=O` [Example 97, N (S)-2-Tetrahydrofuroyl-Gaba-D2Nal-D4ClPhe-D3Pal-Ser-NMeTyr-DLys(Nic)-Leu-Lys(Isp)-Pro-DAlaNH2] ({X1-GABA}-[d2Nal][dPhe(4-Cl)][d3Pal]S[NMeY][dK](Nicotinoyl)L[Lys(iPr)]P[dA]-NH2), the Kb was 0.0339 nM.

`CC(C)C[C@H](NC(=O)[C@@H](CCCNC(N)=O)NC(=O)[C@H](Cc1ccc(O)cc1)N(C)C(=O)[C@H](CO)NC(=O)[C@@H](Cc1cccnc1)NC(=O)[C@@H](Cc1ccc(Cl)cc1)NC(=O)[C@@H](Cc1ccc2ccccc2c1)NC(=O)[C@H]1CCC(=O)O1)C(=O)N[C@@H](CCCNC(=N)N)C(=O)N1CCC[C@H]1C(=O)N[C@H](C)C(N)=O` [Example 78a, N-(R)-5-Oxo-tetrahydrofur-2-oyl-D2Nal-D4ClPhe-D3Pal-Ser-NMeTyr-DCit-Leu-Arg-Pro-DAlaNH2] (X8-[d2Nal][dPhe(4-Cl)][d3Pal]S[NMeY][dCit]LRP[dA]-NH2): the Kb is 0.0105 nM.

For the compound `Cc1ccc(S(=O)(=O)N[C@H](Cc2ccc3ccccc3c2)C(=O)N[C@H](Cc2ccc(Cl)cc2)C(=O)N[C@H](Cc2cccnc2)C(=O)N[C@@H](CO)C(=O)N(C)[C@@H](Cc2ccc(O)cc2)C(=O)N[C@H](CCCNC(N)=O)C(=O)N[C@@H](CC(C)C)C(=O)N[C@@H](CCCNC(=N)N)C(=O)N2CCC[C@H]2C(=O)N[C@H](C)C(N)=O)cc1` [Example 66, N-Tosyl-D2Nal-D4ClPhe-D3Pal-Ser-NMeTyr-DCit-Leu-Arg-Pro-DAlaNH2] (Tos-[d2Nal][dPhe(4-Cl)][d3Pal]S[NMeY][dCit]LRP[dA]-NH2), the Kb was 2.63 nM.

On to `CC(C)C[C@H](NC(=O)[C@@H](CCCCNC(=O)c1cccnc1)NC(=O)[C@H](Cc1ccc(O)cc1)N(C)C(=O)[C@H](CO)NC(=O)[C@@H](Cc1cccnc1)NC(=O)[C@@H](Cc1ccc(Cl)cc1)NC(=O)[C@@H](C)NC(=O)CNC(=O)[C@@H]1CCCO1)C(=O)N[C@@H](CCCCNC(C)C)C(=O)N1CCC[C@H]1C(=O)N[C@H](C)C(N)=O` [Example 100, N (S)-2-Tetrahydrofuroyl-Gly-DAla-D4ClPhe-D3Pal-Ser-NMeTyr-DLys(Nic)-Leu-Lys(Isp)-Pro-DAlaNH2] (X1-G[dA][dPhe(4-Cl)][d3Pal]S[NMeY][dK](Nicotinoyl)L[Lys(iPr)]P[dA]-NH2), for which the Kb was 21.9 nM.
